For series [1], the system named is reperfusion-induced hypertension in uninephrectomized anesthetized rats. Kind of series: Model of acute angiotensin-mediated renal hypertension in anesthetized rats (SBP, DBP, HR). Format: in vivo, rat. How it is done: Male Sprague-Dawley rats, weighing 250-300 g, were anaesthetized with pentobarbital sodium (35 mg/kg, i.p.) and placed on a thermic blanket. The temperature was maintained at 37° C. with a thermoregulator via a rectal probe. The animals were tracheotomized to facilitate spontaneous breathing. A polyethylene catheter was placed in the left jugular vein to allow for infusion of pentobarbital sodium to maintain anesthesia. The left femoral vein and artery were cannulated with polyethylene catheters to allow drugs administration and to monitor blood pressure, respectively.
Animals then underwent a left nephrectomy by excising the left kidney via a flank incision. The right kidney and renal vein, artery and ureter were then exposed via a right retroperitoneal incision, under a dissecting microscope. Silk threads were placed around both vessels and ureter. The cavity was then covered with Vaseline oil.
After 30-60 minutes of basal recordings of arterial blood pressure and heart rate the threads around the renal vessels and ureter were tied close to the renal hilum to induce complete renal ischemia of the right kidney. After 2 hours of ischemia, the threads were removed to allow renal reperfusion and urine output.
For irbesartan experiments and comparisons, control (vehicle) or drug (irbesartan (100 μg/kg), lercanidipine (7.5 μg/kg), or both lercanidipine (7.5 μg/kg) and irbesartan (100 μg/kg)) were administered intravenously at 5 min after reperfusion was begun.
Results were expressed as mean values ±S.E. (in the tables) and in percent change observed.
To evaluate the effects of drugs administration on blood pressure and heart rate within each group, two-way ANOVA and Dunnet's test were used (“within treatment”). To evaluate the statistical differences among the treatment groups, data are analyzed using a three-way ANOVA (analysis of variance) with repeated measures on factor time and pre-planned multiple comparisons. The analysis was performed using, for each treatment, delta values (log transformation). […] (“between treatments”).

Series [2] shares this test system. Described as above. Type of series: in vivo, rat. The source holds these as a separate data set.
Another series concerns the target ACE (Homo sapiens, UniProt P12821). Particulars: cited from earlier work.
For series [3] the following is noted: cited from earlier work; for time of peak serum/plasma concentration: following oral administration; for terminal half-life: in vivo.
For the next series, the target named is T1, AT1 receptor (Homo sapiens, UniProt P30556).
T1 sequence (P30556 1-359): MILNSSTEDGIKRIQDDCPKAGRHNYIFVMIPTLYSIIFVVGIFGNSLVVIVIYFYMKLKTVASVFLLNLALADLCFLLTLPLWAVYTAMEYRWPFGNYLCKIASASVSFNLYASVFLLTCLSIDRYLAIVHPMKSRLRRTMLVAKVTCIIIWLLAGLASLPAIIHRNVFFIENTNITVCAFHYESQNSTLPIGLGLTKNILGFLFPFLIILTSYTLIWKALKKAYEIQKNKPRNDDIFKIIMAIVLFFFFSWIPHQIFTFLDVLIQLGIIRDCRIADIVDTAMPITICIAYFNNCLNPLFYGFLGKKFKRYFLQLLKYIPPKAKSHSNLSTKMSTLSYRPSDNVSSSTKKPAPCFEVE
As to conditions: cited from earlier work.

[4] abbreviates: valsartan 30 μg/kg i.v., n=7, time 0 min, basal, pre-drug.
Setting [5] is: valsartan 30 μg/kg i.v., n=7, time 120 min, end of ischemia, pre-drug.
Setting [6] is: valsartan 30 μg/kg i.v., n=7, time 130 min, 5 min after drug.
[7] abbreviates: valsartan 30 μg/kg i.v., n=7, time 135 min, 10 min after drug.
Setting [8] is: valsartan 30 μg/kg i.v., n=7, time 150 min, 25 min after drug.
Where [9] appears, read: valsartan 30 μg/kg i.v., n=7, time 165 min, 40 min after drug.
Setting [10] is: valsartan 30 μg/kg i.v., n=7, time 180 min, 55 min after drug.
The mark [11] stands for this setting: valsartan 30 μg/kg i.v., n=7, time […], 5 min reperfusion, pre-drug.
Where [12] appears, read: between treatments, three-way ANOVA on delta values, lercanidipine 10 μg/kg, valsartan 30 μg/kg i.v.
Where [13] appears, read: between treatments, three-way ANOVA on delta values, lercanidipine 7.5 μg/kg, irbesartan 100 μg/kg i.v.
Setting [14] is: irbesartan 100 μg/kg i.v., n=6, time 0 min, basal, pre-drug.
[15] abbreviates: irbesartan 100 μg/kg i.v., n=6, time 120 min, end of ischemia, pre-drug.
The mark [16] stands for this setting: irbesartan 100 μg/kg i.v., n=6, time 130 min, 5 min after drug.
[17] abbreviates: irbesartan 100 μg/kg i.v., n=6, time 135 min, 10 min after drug.
Setting [18] is: irbesartan 100 μg/kg i.v., n=6, time 150 min, 25 min after drug.
Setting [19] is: irbesartan 100 μg/kg i.v., n=6, time 165 min, 40 min after drug.
Setting [20] is: irbesartan 100 μg/kg i.v., n=6, time 180 min, 55 min after drug.
The mark [21] stands for this setting: irbesartan 100 μg/kg i.v., n=6, time […], 5 min reperfusion, pre-drug.

Chain of ACE (P12821 30-1306, species assumed): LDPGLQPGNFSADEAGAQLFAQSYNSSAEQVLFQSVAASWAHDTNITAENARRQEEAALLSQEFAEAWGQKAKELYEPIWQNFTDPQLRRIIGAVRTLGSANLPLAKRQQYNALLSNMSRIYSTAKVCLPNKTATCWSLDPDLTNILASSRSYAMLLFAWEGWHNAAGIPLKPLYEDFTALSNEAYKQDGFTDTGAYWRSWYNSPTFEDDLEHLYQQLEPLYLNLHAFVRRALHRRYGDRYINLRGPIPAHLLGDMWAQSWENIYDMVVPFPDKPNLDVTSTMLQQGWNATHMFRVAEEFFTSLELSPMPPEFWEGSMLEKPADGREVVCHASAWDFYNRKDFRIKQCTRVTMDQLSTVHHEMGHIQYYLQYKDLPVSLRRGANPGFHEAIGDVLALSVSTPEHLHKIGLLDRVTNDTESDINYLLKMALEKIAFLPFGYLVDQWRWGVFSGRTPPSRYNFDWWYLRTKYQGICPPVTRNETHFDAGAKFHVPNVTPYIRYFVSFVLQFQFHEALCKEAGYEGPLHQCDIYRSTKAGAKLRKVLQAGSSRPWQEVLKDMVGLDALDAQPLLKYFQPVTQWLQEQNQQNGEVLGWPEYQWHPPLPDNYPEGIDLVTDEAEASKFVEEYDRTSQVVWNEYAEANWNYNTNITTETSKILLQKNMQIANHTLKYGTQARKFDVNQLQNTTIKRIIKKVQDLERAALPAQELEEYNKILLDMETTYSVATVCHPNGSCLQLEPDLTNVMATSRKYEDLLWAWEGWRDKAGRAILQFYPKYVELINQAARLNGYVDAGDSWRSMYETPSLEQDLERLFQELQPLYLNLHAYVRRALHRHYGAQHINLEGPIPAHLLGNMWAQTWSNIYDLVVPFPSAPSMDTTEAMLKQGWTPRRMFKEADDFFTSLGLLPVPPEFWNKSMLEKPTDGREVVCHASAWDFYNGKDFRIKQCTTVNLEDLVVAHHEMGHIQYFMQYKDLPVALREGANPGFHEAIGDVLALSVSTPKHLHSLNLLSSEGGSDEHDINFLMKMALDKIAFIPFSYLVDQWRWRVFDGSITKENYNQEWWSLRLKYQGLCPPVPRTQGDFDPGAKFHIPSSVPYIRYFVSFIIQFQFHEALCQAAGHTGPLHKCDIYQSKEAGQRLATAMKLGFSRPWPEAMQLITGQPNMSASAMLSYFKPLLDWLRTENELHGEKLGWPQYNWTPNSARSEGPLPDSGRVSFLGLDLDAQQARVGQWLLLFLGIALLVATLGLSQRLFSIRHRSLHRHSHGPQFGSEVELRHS

As for `CCCCC(=O)N(Cc1ccc(-c2ccccc2-c2nnn[nH]2)cc1)[C@H](C(=O)O)C(C)C` [valsartan, N-(1-oxopentyl)-N-[[2′-(1H-tetrazol-5-yl)[1,1′-biphenyl]-4-yl]methyl]-L-valine], the DBP in series [1] (setting [4]) came to 66.7 ± 4.1 mmHg; in series [1] (setting [5]), 62.1 ± 4.4 mmHg; in series [1] (setting [6]), 90.4 ± 4.4 b mmHg; in series [1] (setting [7]), 87.1 ± 5.2 b mmHg; in series [1] (setting [8]) it was 81.4 ± 4.5 b mmHg; in series [1] (setting [9]), 79.7 ± 4.6 b mmHg. Moreover, the DBP in series [1] (setting [10]) came to 77.3 ± 4.7 b mmHg; in series [1] (setting [11]) it was 108.1 ± 3.8 mmHg. Moreover, the HR in series [1] (setting [4]) amounted to 372.9 ± 8.4 beats/min; in series [1] (setting [5]), 366.4 ± 10.9 beats/min; in series [1] (setting [6]), 372.1 ± 10.0 beats/min; in series [1] (setting [7]), 381.4 ± 7.3 beats/min; in series [1] (setting [8]) it was 382.1 ± 6.9 beats/min; in series [1] (setting [9]) it was 375.7 ± 7.6 beats/min. The HR was 368.6 ± 6.7 beats/min in series [1] (setting [10]) and 362.1 ± 12.9 beats/min in series [1] (setting [11]). Also, the SBP in series [1] (setting [4]) worked out at 126.4 ± 5.5 mmHg; in series [1] (setting [5]), 120.1 ± 4.3 mmHg; in series [1] (setting [6]), 145.6 ± 1.7 mmHg; in series [1] (setting [7]), 143.4 ± 1.0 a mmHg; in series [1] (setting [8]), 136.7 ± 1.9 b mmHg; in series [1] (setting [9]), 135.6 ± 4.0 b mmHg. Moreover, the SBP in series [1] (setting [10]) is given as 130.0 ± 3.9 b mmHg; in series [1] (setting [11]) it was 161.0 ± 2.4 mmHg. Moreover, the “Diastolic blood pressure: general differences among groups: p vs Vehicle” value in series [2] (setting [12]) is recorded as “p < 0.01”. Further, in series [2] (setting [12]), the “Heart rate: general differences among groups: p vs Vehicle” value is reported as “ns”. Besides, in series [2] (setting [12]), the “Systolic blood pressure: general differences among groups: p vs Vehicle” value is recorded as “ns”. Besides, the “effect on heart rate (in words)” value in series [2] (lercanidipine 10 μg/kg, valsartan 30 μg/kg i.v., alone or together) was “no statistically significant modification on heart rate”. Moreover, the “time of statistically significant decrease in diastolic blood pressure after administration” value in series [2] (within treatment vs […], lercanidipine 10 μg/kg or valsartan 30 μg/kg i.v.) was 5 to 55 min. Also, the “inhibition of ACE” value on ACE is on record as “does not inhibit”. Besides, in series [3], the “time of peak serum/plasma concentration” value was 2 to 4 h.
Take `CCCc1nc2c(C)cc(-c3nc4ccccc4n3C)cc2n1Cc1ccc(-c2ccccc2C(=O)O)cc1` [Telmisartan, 4′-[1,4′-dimethyl-2[-propyl[2,6′-bi-1H-benzimidazol]-1′-yl)methyl]-[1,1′-biphenyl]-2-carboxylic acid]: the “inhibition of ACE” value on ACE was “does not inhibit”. The “time of peak serum/plasma concentration” value in series [3] is 0.5 to 1 h. Also, the “administered dose eliminated unchanged in feces via biliary excretion” value in series [3] (intravenous or oral administration) is recorded as over 97%.
Regarding `CCCCc1ncc(/C=C(\Cc2cccs2)C(=O)O)n1Cc1ccc(C(=O)O)cc1` [Eprosartan, (E)-2-butyl-1 (p-carboxybenzyl)-α-2-thienylmethylimidazole-5-acrylic acid], at AT1 receptor, the “affinity for the AT1 receptor relative to the AT2 receptor” value is given as “about 1000 times”. Besides, the “time of peak serum/plasma concentration” value in series [3] was 1 to 2 h.
As to `CCCCC1=NC2(CCCC2)C(=O)N1Cc1ccc(-c2ccccc2-c2nnn[nH]2)cc1` [irbesartan, 2-butyl-3-[[2′-(1H-tetrazol-5-yl)[1,1′-biphenyl]-4-yl]methyl]-1,3-diazaspiro[4.4]non-1-en-4-one], the “Diastolic blood pressure: general differences among groups: p vs Vehicle” value in series [1] (setting [13]) is on record as “p < 0.05”. In series [1] (setting [13]), the “Heart rate differences among groups: p vs Vehicle” value is on record as “ns”. For the same molecule, in series [1] (setting [13]), the “Systolic blood pressure differences among groups: p vs Vehicle” value is on record as “ns”. Further, the DBP in series [1] (setting [14]) is on record as 63.8 ± 3.5 mmHg; in series [1] (setting [15]), 59.0 ± 2.0 mmHg; in series [1] (setting [16]), 86.3 ± 5.8 b mmHg; in series [1] (setting [17]) it was 90.0 ± 5.6 b mmHg; in series [1] (setting [18]), 91.7 ± 6.1 b mmHg; in series [1] (setting [19]) it was 85.7 ± 6.6 b mmHg. Further, the DBP result in series [1] (setting [20]) is “b 79.3 ± 8.1 b mmHg”; in series [1] (setting [21]), 107.0 ± 4.8 mmHg. In addition, the HR is 373.3 ± 14.5 beats/min in series [1] (setting [14]); 360.0 ± 13.4 beats/min in series [1] (setting [15]); 341.7 ± 13.8 beats/min in series [1] (setting [16]); 346.7 ± 13.6 beats/min in series [1] (setting [17]); 361.7 ± 7.5 a beats/min in series [1] (setting [18]); 363.3 ± 11.8 a beats/min in series [1] (setting [19]). The results for the HR in series [1] (setting [20]) and in series [1] (setting [21]) were 375.0 ± 13.1 b beats/min and 336.7 ± 14.1 beats/min, respectively. In addition, the SBP in series [1] (setting [14]) worked out at 113.3 ± 6.7 mmHg; in series [1] (setting [15]), 112.0 ± 5.6 mmHg; in series [1] (setting [16]) it was 134.3 ± 5.5 b mmHg; in series [1] (setting [17]) it was 138.7 ± 5.3 b mmHg; in series [1] (setting [18]), 139.0 ± 5.7 b mmHg; in series [1] (setting [19]) it was 136.0 ± 7.6 b mmHg. Further, the values for the SBP in series [1] (setting [20]) and in series [1] (setting [21]) were 125.7 ± 8.3 mmHg and 153.7 ± 5.1 mmHg, respectively. In addition, in series [1] (lercanidipine 7.5 μg/kg, irbesartan 100 μg/kg i.v., alone or together), the “effect on heart rate (in words)” value is listed as “no statistically significant change in heart rate”. In addition, the “effect on blood pressure (in words)” value in series [1] (lercanidipine 7.5 μg/kg, irbesartan 100 μg/kg i.v., alone or together, 5 min after reperfusion) was “statistically significant decrease in both systolic and diastolic blood pressure”. Also, the “greater affinity for AT1 receptor compared to AT2 receptor” value at AT1 receptor is “more than 8500 fold”. Besides, on ACE, the “inhibition of ACE” value is “does not inhibit”. Also, the “time of peak serum/plasma concentration” value in series [3] was 1.5 to 2 h.
Turning to `CCCCc1nc(Cl)c(CO)n1Cc1ccc(-c2ccccc2-c2nnn[nH]2)cc1.[K]` [losartan, 2-butyl-4-chloro-1-[p-(o-1H-tetrazol-5-ylphenyl)-benzyl]imidazole-5-methanol monopotassium salt], on ACE, the “inhibition of ACE” value is reported as “does not inhibit”. For the same molecule, in series [3], the “time of peak serum/plasma concentration” value was 1 h and the terminal half-life result was “about 2 hours”.
On to `CCCCc1nc(Cl)c(C(=O)O)n1Cc1ccc(-c2ccccc2-c2nn[nH]n2)cc1` [active carboxylic acid metabolite], for which, in series [3], the “time of peak serum/plasma concentration” value was 3 to 4 h and the terminal half-life was 6 to 9 h.
As for `CCOc1nc2cccc(C(=O)O)c2n1Cc1ccc(-c2ccccc2-c2nnn[nH]2)cc1` [Candesartan free acid], at AT1 receptor, the “greater affinity for the AT1 receptor than the AT2 receptor” value is reported as < 10,000.
Take `CCCc1nc(C(C)(C)O)c(C(=O)O)n1Cc1ccc(-c2ccccc2-c2nnn[nH]2)cc1` [olmesartan, 4-(1-hydroxy-1-methylethyl)-2-propyl-1-[p-(o-1H-tetrazol-5-ylphenyl)benzyl]imidazole-5-carboxylic acid]: on ACE, the “inhibition of ACE” value is “does not inhibit”. Besides, the “cleared in the urine” value in series [3] (following oral administration of olmesartan) is 35 to 50%. The “time of peak serum/plasma concentration” value in series [3] was 1 to 2 h.

Values taken from patent publication US20040198789A1, “Lercanidipine/ARB/diuretic therapeutic combinations” (Recordati Ireland Limited, priority 2003, published 2004).
